Results on one molecule are retold here after ChEMBL document CHEMBL1156313, “Structure-activity relationship of novel DAPK inhibitors identified by structure-based virtual screening” (Bioorg Med Chem, 2010).

Structures are written as SMILES.

The target of test [1] is Proto-oncogene tyrosine-protein kinase Src (Homo sapiens) (UniProt P12931). Briefly: Inhibition of SRC at 10 uM.
Test [2] deals with MAP kinase-activated protein kinase 5 (Homo sapiens) (UniProt Q8IW41). In words: Inhibition of PRAK at 10 uM.
The target in test [3] is Serine/threonine-protein kinase Chk2 (Homo sapiens) (UniProt O96017). Briefly: Inhibition of CHK2 at 10 uM.
The target of test [4] is Hepatocyte growth factor receptor (Homo sapiens) (UniProt P08581). In words: Inhibition of MET at 10 uM.
Test [5] addresses RAC-beta serine/threonine-protein kinase (Homo sapiens) (UniProt P31751). Briefly: Inhibition of AKT2 at 10 uM.
The target in test [6] is RAC-alpha serine/threonine-protein kinase (Homo sapiens) (UniProt P31749). In words: Inhibition of AKT1 at 10 uM.
For test [7], the target named is Insulin receptor (Homo sapiens) (UniProt P06213). In words: Inhibition of INSR at 10 uM.
For test [8], the target named is Mitogen-activated protein kinase 14 (Homo sapiens) (UniProt Q16539). Briefly: Inhibition of P38alpha at 10 uM.
Test [9] has as its target Death-associated protein kinase 1 (Homo sapiens) (UniProt P53355). Briefly: Inhibition of DAPK1 at 10 uM.
For test [10], the target named is T1, Protein kinase C zeta type (Homo sapiens) (UniProt Q05513).
T1 sequence (whole entry): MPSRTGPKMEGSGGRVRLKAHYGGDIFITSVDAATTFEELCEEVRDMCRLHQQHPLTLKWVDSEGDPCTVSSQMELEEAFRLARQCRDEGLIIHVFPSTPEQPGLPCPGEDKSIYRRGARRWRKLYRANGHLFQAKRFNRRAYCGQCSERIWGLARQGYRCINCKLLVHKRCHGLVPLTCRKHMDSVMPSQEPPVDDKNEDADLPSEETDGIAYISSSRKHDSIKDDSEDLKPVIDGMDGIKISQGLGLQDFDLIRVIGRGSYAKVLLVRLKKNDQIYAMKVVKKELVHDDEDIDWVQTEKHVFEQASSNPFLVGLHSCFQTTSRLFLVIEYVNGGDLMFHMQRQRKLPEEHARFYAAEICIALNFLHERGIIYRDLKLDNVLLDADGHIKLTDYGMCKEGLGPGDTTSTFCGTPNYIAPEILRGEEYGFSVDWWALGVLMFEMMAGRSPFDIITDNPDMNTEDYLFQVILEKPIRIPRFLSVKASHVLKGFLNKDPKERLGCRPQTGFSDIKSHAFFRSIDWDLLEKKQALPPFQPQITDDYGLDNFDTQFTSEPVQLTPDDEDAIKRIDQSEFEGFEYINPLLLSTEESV
Briefly: Inhibition of PKCzeta at 10 uM.

Test [11] addresses MAP kinase-activated protein kinase 2 (Homo sapiens) (UniProt P49137). In words: Inhibition of MAPKAPK2 at 10 uM.
For test [12], the target named is Glycogen synthase kinase-3 beta (Homo sapiens) (UniProt P49841). In words: Inhibition of GSK3-beta at 10 uM.
For test [13], the target named is Mitogen-activated protein kinase 1 (Homo sapiens) (UniProt P28482). In words: Inhibition of ERK2 at 10 uM.
Test [14] has as its target Tyrosine-protein kinase Lyn (Homo sapiens) (UniProt P07948). In words: Inhibition of LYN at 10 uM.
Test [15] deals with Tyrosine-protein kinase ABL1 (Homo sapiens) (UniProt P00519). Briefly: Inhibition of ABL at 10 uM.
Test [16] concerns the target Ribosomal protein S6 kinase alpha-1 (Homo sapiens) (UniProt Q15418). In words: Inhibition of RSK1 at 10 uM.
The target in test [17] is Tyrosine-protein kinase Fyn (Homo sapiens) (UniProt P06241). Briefly: Inhibition of FYN at 10 uM.
Test [18] has as its target Tyrosine-protein kinase Lck (Homo sapiens) (UniProt P06239). In words: Inhibition of LCK at 10 uM.
Test [19] concerns the target Mitogen-activated protein kinase 3 (Homo sapiens) (UniProt P27361). In words: Inhibition of ERK1 at 10 uM.
The target in test [20] is Death-associated protein kinase 3 (Homo sapiens, UniProt O43293). In words: Inhibition of human recombinant DAPK3 at 10 uM.
The target of test [21] is T2, Serine/threonine-protein kinase Chk1 (Homo sapiens) (UniProt O14757).
T2 sequence (whole entry): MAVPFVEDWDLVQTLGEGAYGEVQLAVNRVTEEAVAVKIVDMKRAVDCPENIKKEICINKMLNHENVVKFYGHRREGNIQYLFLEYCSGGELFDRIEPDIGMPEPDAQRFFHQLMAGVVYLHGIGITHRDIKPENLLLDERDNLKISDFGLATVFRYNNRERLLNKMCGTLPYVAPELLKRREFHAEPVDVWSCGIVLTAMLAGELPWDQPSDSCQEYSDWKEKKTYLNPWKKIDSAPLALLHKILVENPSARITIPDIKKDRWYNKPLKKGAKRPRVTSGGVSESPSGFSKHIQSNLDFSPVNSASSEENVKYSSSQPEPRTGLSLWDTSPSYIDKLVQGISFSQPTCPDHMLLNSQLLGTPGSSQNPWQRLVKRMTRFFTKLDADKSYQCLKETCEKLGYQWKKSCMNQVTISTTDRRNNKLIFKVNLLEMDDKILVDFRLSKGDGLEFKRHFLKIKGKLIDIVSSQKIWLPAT
In words: Inhibition of CHK1 at 10 uM.

Test [22] has as its target T3, Aurora kinase A (Homo sapiens) (UniProt O14965).
T3 sequence (whole entry): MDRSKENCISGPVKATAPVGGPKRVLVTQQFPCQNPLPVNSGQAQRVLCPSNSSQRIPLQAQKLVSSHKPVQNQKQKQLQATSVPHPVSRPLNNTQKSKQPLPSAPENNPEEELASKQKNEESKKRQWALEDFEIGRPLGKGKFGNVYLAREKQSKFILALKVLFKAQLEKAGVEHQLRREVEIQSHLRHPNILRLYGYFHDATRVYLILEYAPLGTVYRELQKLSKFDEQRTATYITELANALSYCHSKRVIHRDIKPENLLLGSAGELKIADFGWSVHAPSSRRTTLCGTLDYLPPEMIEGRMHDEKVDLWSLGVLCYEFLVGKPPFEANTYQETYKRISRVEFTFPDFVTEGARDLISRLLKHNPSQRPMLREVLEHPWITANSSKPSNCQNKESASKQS
In words: Inhibition of Aurora A at 10 uM.

The target in test [23] is Ribosomal protein S6 kinase alpha-5 (Homo sapiens) (UniProt O75582). Briefly: Inhibition of MSK1 at 10 uM.

Serine/threonine-protein kinase Chk2 (Homo sapiens), sequence (O96017 whole entry): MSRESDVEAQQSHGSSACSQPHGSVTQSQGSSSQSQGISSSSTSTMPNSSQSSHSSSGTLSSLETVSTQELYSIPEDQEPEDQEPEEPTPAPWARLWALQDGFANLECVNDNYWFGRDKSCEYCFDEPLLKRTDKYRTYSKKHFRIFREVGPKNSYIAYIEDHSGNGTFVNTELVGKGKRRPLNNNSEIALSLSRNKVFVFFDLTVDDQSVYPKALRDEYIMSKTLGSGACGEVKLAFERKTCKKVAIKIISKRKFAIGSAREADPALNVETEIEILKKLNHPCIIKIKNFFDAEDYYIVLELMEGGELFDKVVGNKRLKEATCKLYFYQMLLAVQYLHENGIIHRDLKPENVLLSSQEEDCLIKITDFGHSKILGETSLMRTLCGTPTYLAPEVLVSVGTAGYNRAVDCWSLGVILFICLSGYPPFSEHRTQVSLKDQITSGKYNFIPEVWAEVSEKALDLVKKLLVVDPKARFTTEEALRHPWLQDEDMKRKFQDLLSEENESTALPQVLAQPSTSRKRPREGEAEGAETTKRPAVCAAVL
Mitogen-activated protein kinase 3 (Homo sapiens), sequence (P27361 whole entry): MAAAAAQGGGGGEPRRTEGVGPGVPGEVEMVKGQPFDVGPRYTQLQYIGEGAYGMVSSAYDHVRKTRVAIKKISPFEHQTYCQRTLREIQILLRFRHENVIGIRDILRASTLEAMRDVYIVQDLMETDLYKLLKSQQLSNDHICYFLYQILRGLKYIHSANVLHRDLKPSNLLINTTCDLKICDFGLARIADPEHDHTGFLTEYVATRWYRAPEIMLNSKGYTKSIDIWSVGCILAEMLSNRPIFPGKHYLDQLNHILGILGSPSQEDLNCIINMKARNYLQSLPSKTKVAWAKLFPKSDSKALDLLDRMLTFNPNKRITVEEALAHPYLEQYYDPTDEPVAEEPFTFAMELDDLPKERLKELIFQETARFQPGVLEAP
Insulin receptor (Homo sapiens), sequence (P06213 28-758 limits assumed): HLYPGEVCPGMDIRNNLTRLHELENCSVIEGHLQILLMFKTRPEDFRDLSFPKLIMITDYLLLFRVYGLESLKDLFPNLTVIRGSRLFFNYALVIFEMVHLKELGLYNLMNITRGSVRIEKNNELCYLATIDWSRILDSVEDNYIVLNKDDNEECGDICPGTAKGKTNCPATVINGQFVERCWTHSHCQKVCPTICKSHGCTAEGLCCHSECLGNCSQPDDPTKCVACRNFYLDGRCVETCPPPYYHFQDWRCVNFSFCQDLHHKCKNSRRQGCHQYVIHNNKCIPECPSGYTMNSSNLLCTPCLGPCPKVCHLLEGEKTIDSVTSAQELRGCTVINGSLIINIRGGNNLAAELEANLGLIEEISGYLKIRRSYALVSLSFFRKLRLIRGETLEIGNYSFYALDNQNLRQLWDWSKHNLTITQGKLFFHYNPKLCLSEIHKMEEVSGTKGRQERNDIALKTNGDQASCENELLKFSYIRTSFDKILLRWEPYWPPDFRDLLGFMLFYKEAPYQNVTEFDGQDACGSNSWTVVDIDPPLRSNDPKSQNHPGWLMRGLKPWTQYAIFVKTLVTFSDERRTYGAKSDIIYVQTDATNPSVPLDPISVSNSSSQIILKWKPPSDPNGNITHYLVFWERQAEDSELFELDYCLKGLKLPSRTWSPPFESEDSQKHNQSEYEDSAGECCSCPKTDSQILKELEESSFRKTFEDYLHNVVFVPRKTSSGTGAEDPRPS
Insulin receptor (Homo sapiens), sequence (P06213 763-1382 limits assumed): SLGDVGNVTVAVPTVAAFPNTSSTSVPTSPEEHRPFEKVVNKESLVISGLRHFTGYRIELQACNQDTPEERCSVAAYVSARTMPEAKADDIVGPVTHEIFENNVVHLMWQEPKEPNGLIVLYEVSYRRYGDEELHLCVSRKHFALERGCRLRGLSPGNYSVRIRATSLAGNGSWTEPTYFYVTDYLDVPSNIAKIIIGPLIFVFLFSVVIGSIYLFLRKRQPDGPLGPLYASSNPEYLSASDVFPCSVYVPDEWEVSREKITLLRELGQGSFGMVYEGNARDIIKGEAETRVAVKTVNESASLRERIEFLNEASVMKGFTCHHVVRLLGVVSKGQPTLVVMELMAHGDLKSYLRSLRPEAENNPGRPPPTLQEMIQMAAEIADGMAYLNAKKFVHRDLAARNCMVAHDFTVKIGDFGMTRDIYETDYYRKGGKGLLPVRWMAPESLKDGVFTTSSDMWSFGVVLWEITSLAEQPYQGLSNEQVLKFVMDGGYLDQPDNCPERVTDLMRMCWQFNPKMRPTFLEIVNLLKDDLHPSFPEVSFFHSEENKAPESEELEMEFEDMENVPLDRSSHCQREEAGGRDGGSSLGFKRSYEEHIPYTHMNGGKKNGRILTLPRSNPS
Tyrosine-protein kinase Lyn (Homo sapiens), sequence (P07948 2-512 limits assumed): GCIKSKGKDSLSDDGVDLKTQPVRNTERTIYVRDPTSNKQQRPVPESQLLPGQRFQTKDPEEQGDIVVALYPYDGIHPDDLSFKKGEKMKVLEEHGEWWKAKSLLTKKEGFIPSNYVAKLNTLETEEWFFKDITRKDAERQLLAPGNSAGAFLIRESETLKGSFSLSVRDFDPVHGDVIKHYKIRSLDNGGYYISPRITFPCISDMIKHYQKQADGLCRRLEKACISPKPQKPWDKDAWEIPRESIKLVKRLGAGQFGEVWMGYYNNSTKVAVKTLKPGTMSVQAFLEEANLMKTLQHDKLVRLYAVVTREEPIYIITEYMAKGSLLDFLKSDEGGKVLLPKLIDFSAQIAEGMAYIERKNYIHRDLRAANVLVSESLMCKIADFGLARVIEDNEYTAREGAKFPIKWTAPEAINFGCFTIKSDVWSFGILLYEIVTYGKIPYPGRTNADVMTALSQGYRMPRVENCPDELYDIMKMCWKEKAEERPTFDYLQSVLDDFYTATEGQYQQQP
Hepatocyte growth factor receptor (Homo sapiens), sequence (P08581 whole entry): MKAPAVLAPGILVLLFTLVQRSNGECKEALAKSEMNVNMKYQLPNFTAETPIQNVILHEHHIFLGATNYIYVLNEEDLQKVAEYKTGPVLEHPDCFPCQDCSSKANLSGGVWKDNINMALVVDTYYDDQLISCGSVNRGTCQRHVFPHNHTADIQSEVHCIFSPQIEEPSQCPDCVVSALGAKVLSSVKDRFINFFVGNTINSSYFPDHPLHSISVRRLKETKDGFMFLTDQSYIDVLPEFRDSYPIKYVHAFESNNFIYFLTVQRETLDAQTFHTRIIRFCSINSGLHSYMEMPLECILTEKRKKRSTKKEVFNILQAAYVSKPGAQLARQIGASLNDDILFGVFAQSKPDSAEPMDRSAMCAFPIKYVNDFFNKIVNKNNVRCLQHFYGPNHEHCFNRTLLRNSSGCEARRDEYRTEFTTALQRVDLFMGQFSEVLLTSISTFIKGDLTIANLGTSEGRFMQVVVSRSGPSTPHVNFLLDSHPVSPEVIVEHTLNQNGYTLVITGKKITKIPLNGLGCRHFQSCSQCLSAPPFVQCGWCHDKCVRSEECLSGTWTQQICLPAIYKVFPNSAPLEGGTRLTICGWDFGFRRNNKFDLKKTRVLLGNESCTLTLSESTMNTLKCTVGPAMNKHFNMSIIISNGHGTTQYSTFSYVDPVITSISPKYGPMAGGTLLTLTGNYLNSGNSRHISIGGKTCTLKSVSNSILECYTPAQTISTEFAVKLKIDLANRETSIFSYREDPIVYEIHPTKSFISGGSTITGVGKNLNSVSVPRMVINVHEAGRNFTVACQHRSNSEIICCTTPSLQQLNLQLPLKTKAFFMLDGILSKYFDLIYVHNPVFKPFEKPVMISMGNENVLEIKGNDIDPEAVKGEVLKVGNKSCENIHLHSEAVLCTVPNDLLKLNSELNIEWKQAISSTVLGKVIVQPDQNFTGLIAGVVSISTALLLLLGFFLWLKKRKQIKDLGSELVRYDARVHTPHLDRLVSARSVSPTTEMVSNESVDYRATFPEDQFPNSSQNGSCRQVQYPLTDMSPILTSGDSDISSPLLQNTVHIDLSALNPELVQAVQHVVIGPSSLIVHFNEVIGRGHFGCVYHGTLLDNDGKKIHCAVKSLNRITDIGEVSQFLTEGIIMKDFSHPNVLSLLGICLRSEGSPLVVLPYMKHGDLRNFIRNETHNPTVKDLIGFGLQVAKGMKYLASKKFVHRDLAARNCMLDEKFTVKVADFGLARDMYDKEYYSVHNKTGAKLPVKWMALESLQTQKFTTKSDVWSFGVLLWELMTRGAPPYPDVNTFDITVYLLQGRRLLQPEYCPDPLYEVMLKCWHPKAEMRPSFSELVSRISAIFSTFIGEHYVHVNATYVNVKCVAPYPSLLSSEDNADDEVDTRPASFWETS
RAC-beta serine/threonine-protein kinase (Homo sapiens), sequence (P31751 whole entry): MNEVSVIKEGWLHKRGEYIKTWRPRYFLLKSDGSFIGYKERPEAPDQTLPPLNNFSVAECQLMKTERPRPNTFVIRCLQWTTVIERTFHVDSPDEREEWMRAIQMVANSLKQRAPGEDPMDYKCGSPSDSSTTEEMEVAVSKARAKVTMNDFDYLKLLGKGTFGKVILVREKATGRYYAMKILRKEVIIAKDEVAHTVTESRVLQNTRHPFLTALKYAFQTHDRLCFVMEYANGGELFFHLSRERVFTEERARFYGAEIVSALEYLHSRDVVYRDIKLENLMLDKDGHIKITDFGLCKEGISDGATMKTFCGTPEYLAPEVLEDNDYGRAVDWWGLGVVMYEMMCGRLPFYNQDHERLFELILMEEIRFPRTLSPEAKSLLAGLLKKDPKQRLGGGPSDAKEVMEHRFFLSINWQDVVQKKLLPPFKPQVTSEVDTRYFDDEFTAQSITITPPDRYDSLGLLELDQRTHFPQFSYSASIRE
Mitogen-activated protein kinase 14 (Homo sapiens), sequence (Q16539 whole entry): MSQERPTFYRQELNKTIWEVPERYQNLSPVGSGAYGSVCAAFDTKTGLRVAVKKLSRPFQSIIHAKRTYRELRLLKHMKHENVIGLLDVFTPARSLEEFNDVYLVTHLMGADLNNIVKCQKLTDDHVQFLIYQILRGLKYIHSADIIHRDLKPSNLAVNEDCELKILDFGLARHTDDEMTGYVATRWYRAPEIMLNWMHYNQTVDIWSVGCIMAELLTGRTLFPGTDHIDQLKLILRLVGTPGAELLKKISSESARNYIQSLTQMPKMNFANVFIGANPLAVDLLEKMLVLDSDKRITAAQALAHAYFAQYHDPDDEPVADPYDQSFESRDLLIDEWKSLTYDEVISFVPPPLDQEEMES

Broadly, the inhibition is the drop in the measured response relative to a control, in per cent. On to `O=C1OC(/C=C/c2ccccc2)=NC/1=C\c1cccnc1`, for which the inhibition in [1] is 5%; in test [2] it was 5%; in test [3] it was 17%; in test [4] it was 3%; in test [5] it was 17%; in test [6], 15%. In addition, the inhibition in [7] turned out to be 4%; in test [8], 8%; in [9], 91%; in test [10] it was 3%; in test [11] it was 46%; in [12], 3%. The inhibition in test [13] was 20%; in test [14], 1%; in test [15], 9%; in test [16], 4%; in test [17], 1%; in test [18] it was 8%. For the same molecule, the inhibition in [19] amounted to 7%; in test [20] it was 100%; in test [21], 12%; in test [22], 14%; in test [23], 13%.
